Results from patent EP0882734B1, “5'-Deoxy-cytidine derivatives” (F. Hoffmann-La Roche AG, priority 1997, dated 1998).
Marks after values point to notes of the source that are not given here.

Columns and labels:
[1] = mouse, in vivo, 420 min
Method: In this study, fluoropyrimidines, such as 5-FU, doxifluridine [5'-deoxy-5-fluorouridine] and capecitabine [5'-deoxy-5-fluoro-N^4-(n-pentyloxycarbonyl)cytidine], were given to BALB/c nude mice bearing the human gastric cancer xenograft MKN28 in combination with either compound A or 5-EU. Then, 5-FU levels in the plasma and tumor tissues were measured at 0.25, 0.5, 2, 4 and 7 hours after each fluoropyrimidine administration (n = 3 mice), and 5-FU AUC was calculated. […]

[2] = test system: human prostate cancer xenograft PC-3; experiment: Enhancement of capecitabine antitumor activity in PC-3 xenograft; details: oral
Method: Compound A of Example 6 was examined for its activity to enhance the efficacy of capecitabine in BALB/c nude mice bearing the human prostate cancer xenograft PC-3. Compound A and capecitabine were orally given simultaneously or sequentially 5 successive days per week for 3 weeks starting on day 53 after the tumor inoculation when the tumor becomes palpable. On day 75, tumor volume gain and the percentage of the tumor growth inhibition were calculated.

DPD [3] = molecular target: T1, DPD (Homo sapiens, UniProt Q12882); experiment: DPD activity in liver and tumor tissues of PC-3 xenograft mice after administration; type: in vivo, BALB/c nude mice; details: Tumor (PC-3), Compound A 0.5 mmol/kg, 5-EU 0.05 µmol/kg
T1 construct: The liver and tumor tissues were resected out from each group of three mice; from tissue; host or cells: liver (mouse host) and PC-3 tumour xenograft tissue from BALB/c nude mice
T1 sequence (Q12882 4-1025): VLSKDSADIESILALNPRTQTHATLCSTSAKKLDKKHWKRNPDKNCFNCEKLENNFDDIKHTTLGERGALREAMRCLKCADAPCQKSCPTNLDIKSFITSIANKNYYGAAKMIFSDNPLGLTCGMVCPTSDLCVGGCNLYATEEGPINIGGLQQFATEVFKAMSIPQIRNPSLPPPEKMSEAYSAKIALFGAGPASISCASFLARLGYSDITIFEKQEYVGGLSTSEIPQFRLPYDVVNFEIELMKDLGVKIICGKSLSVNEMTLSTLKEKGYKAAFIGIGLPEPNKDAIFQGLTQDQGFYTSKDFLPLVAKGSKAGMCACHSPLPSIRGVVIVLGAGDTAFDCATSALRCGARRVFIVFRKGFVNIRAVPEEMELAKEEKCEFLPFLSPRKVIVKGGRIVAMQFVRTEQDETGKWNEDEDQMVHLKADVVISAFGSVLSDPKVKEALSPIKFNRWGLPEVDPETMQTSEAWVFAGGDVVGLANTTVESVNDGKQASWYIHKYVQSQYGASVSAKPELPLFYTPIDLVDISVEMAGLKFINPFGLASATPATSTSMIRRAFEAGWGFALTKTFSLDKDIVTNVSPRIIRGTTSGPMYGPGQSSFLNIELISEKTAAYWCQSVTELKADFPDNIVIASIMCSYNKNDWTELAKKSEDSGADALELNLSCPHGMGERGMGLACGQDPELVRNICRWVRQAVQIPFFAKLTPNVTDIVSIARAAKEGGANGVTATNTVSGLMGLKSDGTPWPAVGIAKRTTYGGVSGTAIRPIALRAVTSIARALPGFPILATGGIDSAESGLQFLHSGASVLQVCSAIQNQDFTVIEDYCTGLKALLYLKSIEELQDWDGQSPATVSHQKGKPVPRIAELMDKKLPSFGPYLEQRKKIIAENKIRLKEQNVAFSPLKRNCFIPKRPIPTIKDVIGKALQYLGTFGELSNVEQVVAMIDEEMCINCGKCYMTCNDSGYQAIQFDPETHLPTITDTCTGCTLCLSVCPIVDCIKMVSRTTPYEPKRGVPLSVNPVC
Method: (§1) The liver and tumor tissues were resected out from each group of three mice at 2 and 8 hours after the administration of the Compound A (0.5 mmol/kg) and 5-EU ([…]). DPD activity in these tissues was then measured as described elsewhere (Naguib et al., Cancer Research 45, 5405-5412, 1985). […] Table 1. Inhibition of DPD activity by Compound A of Example 6

DPD [4] = molecular target: T2, DPD (Mus musculus, UniProt Q8CHR6); experiment: as above; type: in vivo, BALB/c nude mice; details: Liver, Compound A 0.5 mmol/kg, 5-EU 0.05 µmol/kg
T2 construct: The liver and tumor tissues were resected out from each group of three mice; from tissue; host or cells: liver (mouse host) and PC-3 tumour xenograft tissue from BALB/c nude mice
T2 sequence (Q8CHR6 1-1025): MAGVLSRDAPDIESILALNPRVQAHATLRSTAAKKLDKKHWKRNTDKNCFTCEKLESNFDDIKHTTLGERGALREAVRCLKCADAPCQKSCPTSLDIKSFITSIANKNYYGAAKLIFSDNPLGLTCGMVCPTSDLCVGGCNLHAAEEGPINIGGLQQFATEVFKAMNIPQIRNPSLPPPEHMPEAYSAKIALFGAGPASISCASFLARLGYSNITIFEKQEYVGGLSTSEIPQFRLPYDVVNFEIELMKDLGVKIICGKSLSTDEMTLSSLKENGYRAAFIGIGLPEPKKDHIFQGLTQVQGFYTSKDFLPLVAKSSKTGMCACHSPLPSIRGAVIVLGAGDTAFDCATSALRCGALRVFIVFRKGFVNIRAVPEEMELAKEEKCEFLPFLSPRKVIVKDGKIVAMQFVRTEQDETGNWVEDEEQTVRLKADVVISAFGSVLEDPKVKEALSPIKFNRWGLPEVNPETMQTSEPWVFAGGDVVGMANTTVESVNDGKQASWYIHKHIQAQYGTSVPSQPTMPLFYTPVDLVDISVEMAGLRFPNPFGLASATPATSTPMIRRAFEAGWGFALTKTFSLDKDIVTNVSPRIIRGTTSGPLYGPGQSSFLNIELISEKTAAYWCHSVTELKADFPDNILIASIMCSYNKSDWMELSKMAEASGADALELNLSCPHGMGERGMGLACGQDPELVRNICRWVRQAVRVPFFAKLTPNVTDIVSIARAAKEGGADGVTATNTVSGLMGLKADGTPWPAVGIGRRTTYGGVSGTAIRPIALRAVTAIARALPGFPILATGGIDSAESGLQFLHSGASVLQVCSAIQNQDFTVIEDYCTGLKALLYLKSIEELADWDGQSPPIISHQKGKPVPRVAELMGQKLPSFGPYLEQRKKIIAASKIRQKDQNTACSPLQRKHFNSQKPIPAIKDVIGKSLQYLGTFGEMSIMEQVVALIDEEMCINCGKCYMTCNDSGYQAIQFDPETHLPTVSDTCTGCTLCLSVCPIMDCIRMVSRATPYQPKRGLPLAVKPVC
Method: as §1

[5] = Cytotoxicity of compound A itself (data not shown)
[6] = 2 hr after administration, control 31
[7] = 8 hr after administration, control 29
[8] = 2 hr after administration, control 288
[9] = 8 hr after administration, control 162
[10] = Capecitabine 1.0 mmol/kg/d + Compound A 1.0 µmol/kg/d given one hour prior to capecitabine
[11] = Capecitabine 1.0 mmol/kg/d + Compound A 1.0 µmol/kg/d given simultaneously

For `CCCCCOC(=O)Nc1nc(=O)n([C@@H]2O[C@H](C)[C@@H](O)[C@H]2O)cc1F` [Capecitabine, 5'-deoxy-5-fluoro-N^4-(n-pentyloxycarbonyl)cytidine], the “5-FU AUC Tumor” value [1] was 30 nmolohr/mL, the “Tumor growth inhibition (%) Day 75” value ([2]; Capecitabine 1.0 mmol/kg/d alone, 5 successive days per week for 3 weeks) was 23% and the “Tumor volume change (mm^3) Day 53-75” value ([2]; Capecitabine 1.0 mmol/kg/d alone, 5 successive days per week for 3 weeks, control 981) was 757 mm^3. For the same compound, the “Body weight change (g) Day 75” value ([2]; Capecitabine 1.0 mmol/kg/d alone, control -3.6) was -3.4 g.
For `C#Cc1c[nH]c(=O)[nH]c1=O` [Example 5-EU, 5-ethynyluracil], the DPD activities (DPD [3]; [6]) was 17 pmol/mg protein/min, the DPD activities (DPD [3]; [7]) was 13 pmol/mg protein/min and the DPD activities (DPD [4]; [8]) was 46 pmol/mg protein/min. It also gave a DPD activities (DPD [4]; [9]) of 83 pmol/mg protein/min.
In the case of `C[C@H]1O[C@@H](n2cc(F)c(=O)[nH]c2=O)[C@H](O)[C@@H]1O` [Doxifluridine, 5'-deoxy-5-fluorouridine], the “5-FU AUC Plasma” value [1] is reported as 2.6 nmolohr/mL and the “5-FU AUC Tumor” value [1] is reported as 8.0 nmolohr/mL.
In the case of `C#Cc1cn([C@@H]2O[C@H](C)[C@@H](O)[C@H]2O)c(=O)nc1NC(=O)OCCCCC` [Compound A, 5'-deoxy-5-ethynyl-N^4-(n-pentyloxycarbonyl)cytidine], the cytotoxicity [5] is reported as “not cytotoxic”, the DPD activities (DPD [3]; [6]) is reported as 9 pmol/mg protein/min and the DPD activities (DPD [3]; [7]) is reported as 9 pmol/mg protein/min. For the same compound, the DPD activities (DPD [4]; [8]) was 177 pmol/mg protein/min, the DPD activities (DPD [4]; [9]) was 326 pmol/mg protein/min and the “Body weight change (g) Day 75” value [2, 10] was -0.3 g. The “Tumor growth inhibition (%) Day 75” value [2, 10] was 80%, the “Tumor volume change (mm^3) Day 53-75” value ([2]; Capecitabine 1.0 mmol/kg/d + Compound A 1.0 µmol/kg/d given one hour prior to capecitabine, p < 0.05 vs control) was 201* mm^3 and the “Body weight change (g) Day 75” value [2, 11] was -1.8 g. For the same compound, the “Tumor growth inhibition (%) Day 75” value [2, 11] was 67% and the “Tumor volume change (mm^3) Day 53-75” value ([2]; Capecitabine 1.0 mmol/kg/d + Compound A 1.0 µmol/kg/d given simultaneously, p < 0.05 vs control) was 323* mm^3.
